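Cultured in 96-well plates, cells were exposed to test compound for 48 hours across five concentrations. GI50: concentration for 50% inhibition of growth.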 Calls of active or inactive are those of the source. No stated cut-off is given here; in the data, active = GI50 up to about 1.1 µM and inactive = higher.
Key:
Experiment in all cases: NCI anticancer screen, dose series, 48 h
CAKI-1 = tested on: CAKI-1
OVCAR-4 = tested on: OVCAR-4
NCI/ADR-RES = tested on: NCI/ADR-RES
A498 = tested on: A498
K562 = tested on: K562
SF-268 = tested on: SF-268
KM-20L2 = tested on: KM-20L2
DMS-273 = tested on: DMS-273
SNB-19 = tested on: SNB-19
RPMI-8226 = tested on: RPMI-8226
IGROV-1 = tested on: IGROV-1
NCI-H23 = tested on: NCI-H23
SK-MEL-28 = tested on: SK-MEL-28
RXF 393 = tested on: RXF 393
SNB-75 = tested on: SNB-75
A549 = tested on: A549
UO-31 = tested on: UO-31
HCT-116 = tested on: HCT-116
LOX IMVI = tested on: LOX IMVI
SK-MEL-2 = tested on: SK-MEL-2
XF498 = tested on: XF498
UACC-257 = tested on: UACC-257
HT-29 = tested on: HT-29
SK-MEL-5 = tested on: SK-MEL-5
HCC 2998 = tested on: HCC 2998
HCT-15 = tested on: HCT-15
COLO 205 = tested on: COLO 205
KM12 = tested on: KM12
CCRF-CEM = tested on: CCRF-CEM
DLD-1 = tested on: DLD-1
SW-620 = tested on: SW-620
SN12C = tested on: SN12C
NCI-H522 = tested on: NCI-H522
U-251 = tested on: U-251
HOP-18 = tested on: HOP-18
EKVX = tested on: EKVX
SK-OV-3 = tested on: SK-OV-3
OVCAR-8 = tested on: OVCAR-8
OVCAR-5 = tested on: OVCAR-5
OVCAR-3 = tested on: OVCAR-3
SF-295 = tested on: SF-295
HL-60 = tested on: HL-60
UACC-62 = tested on: UACC-62
SNB-78 = tested on: SNB-78
SF-539 = tested on: SF-539
HOP-92 = tested on: HOP-92
MOLT-4 = tested on: MOLT-4
HOP-62 = tested on: HOP-62
MCF7 = tested on: MCF7
M19-MEL = tested on: M19-MEL
NCI-H460 = tested on: NCI-H460
DMS-114 = tested on: DMS-114
NCI-H226 = tested on: NCI-H226

CC1=C2C(O)C(C(C)C(=O)N(C)C)CCC2(C)C=CC1=O (stereo not drawn)
GI50 (CAKI-1): > 100 µM (inactive)
GI50 (OVCAR-4): > 100 µM (inactive)
GI50 (NCI/ADR-RES): > 100 µM (inactive)
GI50 (A498): > 100 µM (inactive)
GI50 (K562): > 100 µM (inactive)
GI50 (SF-268): > 100 µM (inactive)
GI50 (KM-20L2): > 100 µM (inactive)
GI50 (DMS-273): > 100 µM (inactive)
GI50 (SNB-19): > 100 µM (inactive)
GI50 (RPMI-8226): > 100 µM (inactive)
GI50 (IGROV-1): > 100 µM (inactive)
GI50 (NCI-H23): > 100 µM (inactive)
GI50 (SK-MEL-28): > 100 µM (inactive)
GI50 (RXF 393): > 100 µM (inactive)
GI50 (SNB-75): > 100 µM (inactive)
GI50 (A549): > 100 µM (inactive)
GI50 (UO-31): > 100 µM (inactive)
GI50 (HCT-116): > 100 µM (inactive)
GI50 (LOX IMVI): > 100 µM (inactive)
GI50 (SK-MEL-2): > 100 µM (inactive)
GI50 (XF498): > 100 µM (inactive)
GI50 (UACC-257): > 100 µM (inactive)
GI50 (HT-29): > 100 µM (inactive)
GI50 (SK-MEL-5): > 100 µM (inactive)
GI50 (HCC 2998): > 100 µM (inactive)
GI50 (HCT-15): > 100 µM
GI50 (COLO 205): > 100 µM (inactive)
GI50 (KM12): > 100 µM (inactive)
GI50 (CCRF-CEM): > 100 µM (inactive)
GI50 (DLD-1): > 100 µM (inactive)
GI50 (SW-620): > 100 µM (inactive)
GI50 (SN12C): > 100 µM (inactive)
GI50 (NCI-H522): > 100 µM (inactive)
GI50 (U-251): > 100 µM (inactive)
GI50 (HOP-18): > 100 µM (inactive)
GI50 (EKVX): > 100 µM (inactive)
GI50 (SK-OV-3): > 100 µM (inactive)
GI50 (OVCAR-8): > 100 µM (inactive)
GI50 (OVCAR-5): > 100 µM (inactive)
GI50 (OVCAR-3): > 100 µM (inactive)
GI50 (SF-295): > 100 µM (inactive)
GI50 (HL-60): > 100 µM (inactive)
GI50 (UACC-62): > 100 µM (inactive)
GI50 (SNB-78): > 100 µM (inactive)
GI50 (SF-539): > 100 µM (inactive)
GI50 (HOP-92): > 100 µM (inactive)
GI50 (MOLT-4): > 100 µM (inactive)
GI50 (HOP-62): > 100 µM (inactive)
GI50 (MCF7): > 100 µM (inactive)
GI50 (M19-MEL): > 100 µM (inactive)
GI50 (NCI-H460): > 100 µM (inactive)
GI50 (DMS-114): > 100 µM (inactive)
GI50 (NCI-H226): > 100 µM (inactive)

— ChEMBL document CHEMBL1201862, “PubChem BioAssay data set” (2004)
